Laboratory results: US10760052B2, “Method of inhibiting tau phosphorylation” (priority 2012, dated 2020)
Like-named read-outs stand apart in the source and are kept apart here.

Molecular target: T1, mu opiate receptor (MOR) (Rattus norvegicus, UniProt P33535)
T1 construct: from tissue; host or cells: striatum (membrane preparation)
Type: biochemical
Details: for Concentration of FLNA-Binding Compound as Agonist 0.1 μM / Concentration of FLNA-Binding Compound as Agonist 1 μM / Concentration of FLNA-Binding Compound as Agonist 1 μM + BFNA: [35S]GTPγS binding to Gαo in striatal membranes; for Concentration of FLNA-Binding Compound as Agonist 0.1 μM: compound 0.1 μM; for Concentration of FLNA-Binding Compound as Agonist 1 μM: compound 1 μM; for Concentration of FLNA-Binding Compound as Agonist 1 μM + BFNA: compound 1 μM plus 1 μM β-funaltrexamine (MOR antagonist); for MOR agonist activity ([35S]GTPγS binding), compound as agonist: preliminary study, average of two runs

[1] = 0.1 μM compound, striatal membranes, Series C-2
[2] = 1 μM compound + 1 μM β-FNA (selective MOR antagonist), Series C-2
[3] = 1 μM compound, striatal membranes, Series C-2

T1 sequence (P33535 whole entry): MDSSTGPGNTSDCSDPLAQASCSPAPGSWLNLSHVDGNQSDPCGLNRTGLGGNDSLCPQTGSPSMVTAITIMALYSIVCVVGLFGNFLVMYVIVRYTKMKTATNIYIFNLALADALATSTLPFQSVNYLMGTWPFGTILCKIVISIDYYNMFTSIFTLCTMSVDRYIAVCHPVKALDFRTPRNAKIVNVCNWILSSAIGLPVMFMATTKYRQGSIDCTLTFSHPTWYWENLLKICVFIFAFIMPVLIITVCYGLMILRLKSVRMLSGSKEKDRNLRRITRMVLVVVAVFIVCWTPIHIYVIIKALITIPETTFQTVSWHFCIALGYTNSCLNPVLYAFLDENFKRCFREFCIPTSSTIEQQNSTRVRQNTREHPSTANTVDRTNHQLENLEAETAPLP

CS(=O)(=O)c1ccc(S(=O)(=O)N2CCC3(CC2)OCCN3S(=O)(=O)c2ccc(S(C)(=O)=O)cc2)cc1 [Compound C0009]
% DAMGO (0.1 μM): 85.1% | % DAMGO (1 μM): 92.6% | % DAMGO + BFNA: 41.2% | Concentration of FLNA-Binding Compound as Agonist 0.1 μM: 146.3% | Concentration of FLNA-Binding Compound as Agonist 1 μM: 256.2% | Concentration of FLNA-Binding Compound as Agonist 1 μM + BFNA: 26.4%

CC1CCC(C(C)C)C(OCC(O)CN2CCCCCCC2)C1 (stereo not drawn) [Compound A0014]
% DAMGO (0.1 μM): 83.2% | % DAMGO (1 μM): 67.5% | % DAMGO + BFNA: 214.3% | Concentration of FLNA-Binding Compound as Agonist 0.1 μM: 147.0% | Concentration of FLNA-Binding Compound as Agonist 1 μM: 174.9% | Concentration of FLNA-Binding Compound as Agonist 1 μM + BFNA: 140.8%

CC1CN(CC(O)COC2CCCCC2)CC(C)O1 (stereo not drawn) [Compound A0017]
% DAMGO (0.1 μM): 96.9% | % DAMGO (1 μM): 100.4% | % DAMGO + BFNA: 187.9% | Concentration of FLNA-Binding Compound as Agonist 0.1 μM: 161.9% | Concentration of FLNA-Binding Compound as Agonist 1 μM: 246.0% | Concentration of FLNA-Binding Compound as Agonist 1 μM + BFNA: 65.2%

Cc1ccc(S(=O)(=O)N2CCOC23CCN(CC2CC2)CC3)cc1 [Compound C0134M]
MOR agonist activity ([35S]GTPγS binding), compound as agonist (0.1 μM): 150.7% | MOR agonist activity ([35S]GTPγS binding), compound as agonist (1 μM + βNFA): 53.2% | MOR agonist activity ([35S]GTPγS binding), compound as agonist (1 μM): 224.0%

COc1c2c(cc3c1C(CC(O)CCc1ccccc1)N(C)CC3)OCO2 (stereo not drawn) [Compound B0051]
% DAMGO (0.1 μM): 68.4% | % DAMGO (1 μM): 76.7% | % DAMGO + BFNA: 263.9% | Concentration of FLNA-Binding Compound as Agonist 0.1 μM: 115.6% | Concentration of FLNA-Binding Compound as Agonist 1 μM: 167.9% | Concentration of FLNA-Binding Compound as Agonist 1 μM + BFNA: 43.8%

O=[N+]([O-])c1ccc(S(=O)(=O)N2CCC3(CC2)NCCCO3)cc1 [Compound C0045]
% DAMGO (0.1 μM): 88.3% | % DAMGO (1 μM): 109.1% | % DAMGO + BFNA: 634.3% | [35S]GTPγS binding, FLNA-Binding Compound as Agonist at 0.1 μM [1]: 149.2% | [35S]GTPγS binding, FLNA-Binding Compound as Agonist at 1 μM + BFNA [2]: 105.3% | [35S]GTPγS binding, FLNA-Binding Compound as Agonist at 1 μM [3]: 238.8%

COc1ccccc1C(=O)CC1c2c(cc3c(c2OC)OCO3)CC[N+]1(C)C (stereo not drawn) [Compound B0025]
% DAMGO (0.1 μM): 96.3% | % DAMGO (1 μM): 86.8% | % DAMGO + BFNA: 211.8% | Concentration of FLNA-Binding Compound as Agonist 0.1 μM: 159.6% | Concentration of FLNA-Binding Compound as Agonist 1 μM: 234.6% | Concentration of FLNA-Binding Compound as Agonist 1 μM + BFNA: 137.7%

O=C1CNC2(CCNCC2)N1Cc1ccccc1 [Compound C0114M]
% DAMGO (0.1 μM): 77.6% | % DAMGO (1 μM): 71.4% | % DAMGO + BFNA: 91.3% | [35S]GTPγS binding, FLNA-Binding Compound as Agonist at 0.1 μM: 114.0% | [35S]GTPγS binding, FLNA-Binding Compound as Agonist at 1 μM: 144.3% | [35S]GTPγS binding, FLNA-Binding Compound as Agonist at 1 μM + BFNA: 35.9%

COc1ccccc1CCC(=O)CC1c2c(cc3c(c2OC)OCO3)CC[N+]1(C)C (stereo not drawn) [Compound B0045]
% DAMGO (0.1 μM): 82.6% | % DAMGO (1 μM): 83.4% | % DAMGO + BFNA: 257.1% | Concentration of FLNA-Binding Compound as Agonist 0.1 μM: 129.3% | Concentration of FLNA-Binding Compound as Agonist 1 μM: 193.1% | Concentration of FLNA-Binding Compound as Agonist 1 μM + BFNA: 83.8%

CC(=O)N1CCSC12CCN(S(=O)(=O)c1ccc([N+](=O)[O-])cc1)CC2 [Compound C0050]
% DAMGO (0.1 μM): 76.1% | % DAMGO (1 μM): 54.8% | % DAMGO + BFNA: 134.1% | [35S]GTPγS binding, FLNA-Binding Compound as Agonist at 0.1 μM [1]: 110.3% | [35S]GTPγS binding, FLNA-Binding Compound as Agonist at 1 μM + BFNA [2]: 59.0% | [35S]GTPγS binding, FLNA-Binding Compound as Agonist at 1 μM [3]: 127.6%

COc1ccc(NC(=O)N2CCC3(CC2)NCCO3)cc1 [Compound C0151M-2]
% DAMGO (0.1 μM): 201.6% | % DAMGO (1 μM): 122.0% | % DAMGO + BFNA: 233.1% | [35S]GTPγS binding, FLNA-Binding Compound as Agonist at 0.1 μM [1]: 346.8% | [35S]GTPγS binding, FLNA-Binding Compound as Agonist at 1 μM + BFNA [2]: 212.8% | [35S]GTPγS binding, FLNA-Binding Compound as Agonist at 1 μM [3]: 397.6%

CC(=O)c1ccc(S(=O)(=O)N2CCOC23CCN(CC2CC2)CC3)cc1 [Compound C0095M]
% DAMGO (0.1 μM): 107.4% | % DAMGO (1 μM): 88.8% | % DAMGO + BFNA: 489.5% | [35S]GTPγS binding, FLNA-Binding Compound as Agonist at 0.1 μM [1]: 189.1% | [35S]GTPγS binding, FLNA-Binding Compound as Agonist at 1 μM + BFNA [2]: 107.7% | [35S]GTPγS binding, FLNA-Binding Compound as Agonist at 1 μM [3]: 224.6%

O=S(=O)(c1cccc2cccnc12)N1CCC2(CC1)OCCN2S(=O)(=O)c1cccc2cccnc12 [Compound C0143M]
% DAMGO (0.1 μM): 47.1% | % DAMGO (1 μM): 59.3% | % DAMGO + BFNA: 94.7% | [35S]GTPγS binding, FLNA-Binding Compound as Agonist at 0.1 μM [1]: 81.0% | [35S]GTPγS binding, FLNA-Binding Compound as Agonist at 1 μM + BFNA [2]: 86.5% | [35S]GTPγS binding, FLNA-Binding Compound as Agonist at 1 μM [3]: 193.3% | Concentration of FLNA-Binding Compound as Agonist 0.1 μM: 81.0% | Concentration of FLNA-Binding Compound as Agonist 1 μM: 193.3% | Concentration of FLNA-Binding Compound as Agonist 1 μM + BFNA: 86.5%
